These results are taken from patent US5232941A, “Caffeic acid derivatives and pharmaceutical compositions containing the same” (Suntory Limited, priority 1990, dated 1993).

Assay [1] addresses T1, 12-lipoxygenase (Rattus norvegicus, UniProt F1LQ70).
T1 construct: the frozen platelet rich plasma was allowed to melt and then subjected to ultrasonic treatment in ice water so that an enzyme solution was obtained; from tissue; host or cells: rat platelets (washed, frozen, sonicated; crude enzyme solution)
T1 sequence (F1LQ70 1-663): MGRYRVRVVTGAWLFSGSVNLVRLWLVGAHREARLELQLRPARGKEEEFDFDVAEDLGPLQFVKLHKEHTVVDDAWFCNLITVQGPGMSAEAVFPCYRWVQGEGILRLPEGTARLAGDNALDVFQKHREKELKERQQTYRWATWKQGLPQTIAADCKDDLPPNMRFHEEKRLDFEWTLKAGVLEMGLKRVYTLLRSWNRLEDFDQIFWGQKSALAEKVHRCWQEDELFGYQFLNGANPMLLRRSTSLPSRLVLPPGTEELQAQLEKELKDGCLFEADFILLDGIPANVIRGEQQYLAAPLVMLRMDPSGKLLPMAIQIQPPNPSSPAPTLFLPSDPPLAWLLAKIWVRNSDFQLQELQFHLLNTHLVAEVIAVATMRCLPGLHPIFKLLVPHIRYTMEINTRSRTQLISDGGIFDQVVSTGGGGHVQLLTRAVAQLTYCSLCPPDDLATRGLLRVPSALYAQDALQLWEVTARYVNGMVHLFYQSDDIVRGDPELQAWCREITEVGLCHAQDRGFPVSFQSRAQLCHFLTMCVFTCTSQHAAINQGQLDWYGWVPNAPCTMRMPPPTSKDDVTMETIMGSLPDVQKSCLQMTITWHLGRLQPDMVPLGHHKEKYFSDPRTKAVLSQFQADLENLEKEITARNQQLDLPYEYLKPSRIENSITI
The experiment in a line: 12-Lipoxygenase Inhibition Activity (In Vitro), 12-HETE production by rat platelet enzyme solution. The assay is classed as biochemical. The settings on record: [14C]-arachidonic acid, 5 min pre-incubation at 37° C., 5 min reaction, read-out: Inhibition rate (%) of 12-HETE production; for inhibition at 1 µM: 10^-6 M; for inhibition at 0.1 µM: 10^-7 M. The procedure: The 12-lipoxygenase inhibition activity of each test compound according to the present invention was measured in the following manner.
Firstly, blood was collected from the heart of a rat (while using sodium citrate as an anticoagulant), and platelet rich plasma was prepared by a method known per se in the art. The platelet rich plasma was washed twice with a isotonic buffer (A) [134 mM of NaCl, 5 mM of D-glucose, 1 mM of EDTA, 1 mM of EGTA, 15 mM of tris-HCl (pH 7.4)] and was then frozen and stored at -80° C. Prior to a pharmacological test, the frozen platelet rich plasma was allowed to melt and then subjected to ultrasonic treatment in ice water so that an enzyme solution was obtained. To the isotonic buffer (A), 1 mM of GSH, the test compound (adjusted to have the final concentrations of 1 μM and 0.1 μM) and the enzyme solution (300-500 μg of protein) were added. Subsequent to pre-incubation at 37° C. for 5 minutes, [^14 C]-arachidonic acid (0.05 μCi) (final concentration: […]) was added to react it for 5 minutes. After the reaction was terminated, the reaction mixture was spread over a thin layer plate of silica gel to conduct autoradiography. 12-HETE was identified and a reduction in its production was determined as an index for its 12-lipoxygenase inhibition activity.

Assay [2] relates to 12-Lipoxygenase in platelets. Description: 12-Lipoxygenase Inhibition Activity in Platelets (Extro Vivo). The settings on record: 1.0 mg/kg i.v., blood 10 min after administration; base preparation group = 100%. On the set-up: species or system SD rat. The method, then:
Under anesthesia with pentobarbital, an SD rat (8 week-old, male) was intravenously administered with a polyethylene glycol solution containing 1.0 mg/kg of a test compound. Ten minutes after the administration, blood was collected from the abdominal vena cava, and the inhibitory activity was measured as in the above test (1).
Setting at 100% the amount of 12-HETE of the group in which a base preparation was administered instead of the drugs, the results, namely, the amount of 12-HETE obtained when each test drug was administered was indicated in terms of %.

Assay [3] deals with 12-lipoxygenase. To be noted: conventionally known compound; cited from earlier work.

Turning to `CCOC(=O)Oc1ccc(C=C(C#N)C(=O)OCCc2ccccc2)cc1OC(=O)OCC` [Compound 1, phenethyl 2-cyano-3-(3,4-diethoxycarbonyloxyphenyl)-2-propenoate], on 12-lipoxygenase [1], the inhibition (usually the percentage by which the read-out fell short of the control) at 1 µM is 85.4% and the inhibition at 0.1 µM came out at 52.9%. Besides, in assay [2], the “inhibitory effect on amount of 12-HETE” value was found to be 30%.

As for `CCOC(=O)Oc1ccc(C=C(C#N)C(=O)OCC)cc1OC(=O)OCC` [Compound 6, ethyl 2-cyano-3-(3,4-diethoxycarbonyloxyphenyl)-2-propenoate], the inhibition at 0.1 µM on 12-lipoxygenase [1] is 60.3%.

As to `CCC[C@H](OC(=O)C(C#N)=Cc1ccc(OC(=O)OCC)c(OC(=O)OCC)c1)c1ccccc1` [Compound 7, (S)-(-)-1-phenylbutyl 2-cyano-3-(3,4-diethoxycarbonyloxyphenyl)-2-propenoate], on 12-lipoxygenase [1], the inhibition at 1 µM came to 75.6% and the inhibition at 0.1 µM was 40.8%.

With `CCC[C@@H](OC(=O)C(C#N)=Cc1ccc(OC(=O)OCC)c(OC(=O)OCC)c1)c1ccccc1` [Compound 8, (R)-(+)-1-phenylbutyl 2-cyano-3-(3,4-diethoxycarbonyloxyphenyl)-2-propenoate], at 12-lipoxygenase [1], the inhibition at 1 µM was determined as 65.1% and the inhibition at 0.1 µM amounted to 9.4%.

`CCOC(=O)Oc1ccc(C=C(C#N)C(=O)OC(C)Cc2ccccc2)cc1OC(=O)OCC` (centres unmarked) [Compound 9, 1-methyl-2-phenylethyl 2-cyano-3-(3,4-diethoxycarbonyloxyphenyl)-2-propenoate]: at 12-lipoxygenase [1], the inhibition at 1 µM worked out at 71.8% and the inhibition at 0.1 µM was 4.2%.

Consider `CCOC(=O)Oc1ccc(C=C(C#N)C(=O)OCCc2ccsc2)cc1OC(=O)OCC` [Compound 10, 2-(3-thienyl)-ethyl 2-cyano-3-(3,4-diethoxycarbonyloxyphenyl)-2-propenoate], for which, at 12-lipoxygenase [1], the inhibition at 1 µM stood at 79.3% and the inhibition at 0.1 µM came out at 38.7%.

Consider `CCOC(=O)Oc1ccc(C=C(C#N)C(=O)OCc2ccco2)cc1OC(=O)OCC` [Compound 11, 2-furylmethyl 2-cyano-3-(3,4-diethoxycarbonyloxyphenyl)-2-propenoate], for which, on 12-lipoxygenase [1], the inhibition at 1 µM turned out to be 53.8% and the inhibition at 0.1 µM amounted to 23.5%.

Consider `CCOC(=O)Oc1ccc(C=C(C#N)C(=O)OCCCc2ccccn2)cc1OC(=O)OCC` [Compound 12, 3-(2-pyridyl)-propyl 2-cyano-3-(3,4-diethoxycarbonyloxyphenyl)-2-propenoate], for which, on 12-lipoxygenase [1], the inhibition at 1 µM stood at 68.4% and the inhibition at 0.1 µM was determined as 16.3%.

With `CCOC(=O)Oc1ccc(C=C(C#N)C(=O)OCCCc2cccnc2)cc1OC(=O)OCC` [Compound 13, 3-(3-pyridyl)-propyl 2-cyano-3-(3,4-diethoxycarbonyloxyphenyl)-2-propenoate], on 12-lipoxygenase [1], the inhibition at 1 µM was 40.8% and the inhibition at 0.1 µM was under 0%.

Consider `CCOC(=O)Oc1ccc(C=C(C#N)C(=O)OCc2ccsc2)cc1OC(=O)OCC` [Compound 14, 3-thienylmethyl 2-cyano-3-(3,4-diethoxycarbonyloxyphenyl)-2-propenoate], for which, at 12-lipoxygenase [1], the inhibition at 1 µM was determined as 64.6% and the inhibition at 0.1 µM was determined as 34.6%.

On to `CCOC(=O)Oc1cc(C=C(C#N)C(=O)OCCc2ccccc2)ccc1O` [Compound 17, phenethyl 2-cyano-3-(3-ethoxycarbonyloxy-4-hydroxyphenyl)-2-propenoate], for which, on 12-lipoxygenase [1], the inhibition at 1 µM stood at 75.9% and the inhibition at 0.1 µM came to 59.3%. The “inhibitory effect on amount of 12-HETE” value in assay [2] worked out at 18%.

For `CCOC(=O)Oc1ccc(C=C(C#N)C(=O)OCCc2cccs2)cc1OC(=O)OCC` [Compound 18, 2-(2-thienyl)-ethyl 2-cyano-3-(3,4-diethoxycarbonyloxyphenyl)-2-propenoate], the inhibition at 0.1 µM on 12-lipoxygenase [1] was 65.8%.

`COC(=O)Oc1ccc(C=C(C#N)C(=O)OCCc2cccs2)cc1OC(=O)OC` [Compound 19, 2-(2-thienyl)-ethyl 2-cyano-3-(3,4-dimethoxycarbonyloxyphenyl)-2-propenoate]: at 12-lipoxygenase [1], the inhibition at 1 µM is 50.8% and the inhibition at 0.1 µM turned out to be 4.6%.

In the case of `CC(C)COC(=O)Oc1ccc(C=C(C#N)C(=O)OCCc2cccs2)cc1OC(=O)OCC(C)C` [Compound 20, 2-(2-thienyl)-ethyl 2-cyano-3-(3,4-diisobutoxycarbonyloxyphenyl)-2-propenoate], at 12-lipoxygenase [1], the inhibition at 1 µM was determined as 63.4% and the inhibition at 0.1 µM was 41.2%.

Take `N#CC(=Cc1ccc(OC(=O)OCc2ccccc2)c(OC(=O)OCc2ccccc2)c1)C(=O)OCCc1cccs1` [Compound 21, 2-(2-thienyl)-ethyl 2-cyano-3-(3,4-dibenzyloxycarbonyloxyphenyl)-2-propenoate]: at 12-lipoxygenase [1], the inhibition at 1 µM was 41.6% and the inhibition at 0.1 µM was under 0%.

As to `CCCCCCCOC(=O)Oc1ccc(C=C(C#N)C(=O)OCCc2cccs2)cc1OC(=O)OCCCCCCC` [Compound 22, 2-(2-thienyl)-ethyl 2-cyano-3-(3,4-diheptoxycarbonyloxyphenyl)-2-propenoate], on 12-lipoxygenase [1], the inhibition at 1 µM stood at 27.6% and the inhibition at 0.1 µM amounted to 14%.

With `CCOC(=O)Oc1cc(C=C(C#N)C(=O)OCCc2cccs2)ccc1O` [Compound 23, 2-(2-thienyl)-ethyl 2-cyano-3-(3-ethoxycarbonyloxy-4-hydroxyphenyl)-2-propenoate], on 12-lipoxygenase [1], the inhibition at 1 µM amounted to 84.5% and the inhibition at 0.1 µM was determined as 64.5%.

Consider `CCOC(=O)Oc1cc(C=C(C#N)C(=O)OCCc2cccs2)cc(OC(=O)OCC)c1OC(=O)OCC` [Compound 29, 2-(2-thienyl)-ethyl 2-cyano-3-(3,4,5-triethoxycarbonyloxyphenyl)-2-propenoate], for which, at 12-lipoxygenase [1], the inhibition at 1 µM was 59.2% and the inhibition at 0.1 µM is 25.1%.

In the case of `N#CC(=Cc1ccc2oc(=O)oc2c1)C(=O)OCCc1cccs1` [Compound 34, 2-(2-thienyl)-ethyl 2-cyano-3-(3,4-cyclic dioxolonylphenyl)-2-propenoate], the inhibition at 0.1 µM at 12-lipoxygenase [1] turned out to be 91.5%.

As to `N#CC(=Cc1ccc2oc(=O)oc2c1)C(=O)OCCc1ccccc1` [Compound 35, phenethyl 2-cyano-3-(3,4-cyclic dioxolonylphenyl)-2-propenoate], on 12-lipoxygenase [1], the inhibition at 1 µM was found to be 82.9% and the inhibition at 0.1 µM amounted to 56.6%.

As for `N#CC(=Cc1ccc2oc(=O)oc2c1)C(=O)Oc1ccccc1` [Compound 36, phenyl 2-cyano-3-(3,4-cyclic dioxolonylphenyl)-2-propenoate], the inhibition at 0.1 µM at 12-lipoxygenase [1] was found to be 75.6%.

Regarding `O=c1cc(-c2ccccc2)oc2cc(O)c(O)c(O)c12` [baicalein], the 12-lipoxygenase inhibitory action in the assay with 12-lipoxygenase [3] is 12-lipoxygenase inhibitory action.
